Measurements taken from patent US20040043992A1, “Meloxicam for alleviating organ injury during organ operation or transplantation” (Boehringer Ingelheim International GmbH, priority 2002, published 2004).
Like-named read-outs stand apart in the source and are kept apart here. Square brackets hold non-standard residues; d marks the D form. Peptide text beside a SMILES is read from it. Nle = CCCC[C@H](N)C(=O)O

Assays:
[1] = tested on: livers of NHBDs (Non Heart Beating Donors); experiment: ischemic in vitro preservation and reperfusion of livers of Non Heart Beating Donors; set-up: species or system Wistar rat; conditions: meloxicam 4.6 mg/kg body weight added to HTK solution; 60 minutes warm ischemia, 24 hours at 4° C., 45 minutes of reperfusion
Experimental: A previous (unpublished) study was been performed by the inventors on the ischemic in vitro preservation of livers of NHBDs (Non Heart Beating Donors). The aim of this study was to test the ability of meloxicam to ameliorate the ischemia/reperfusion injury of these livers. The experiments were performed using a Wistar rat model. Cardiac arrest was induced in Wistar rats under anesthesia by phrenotomy. The livers were excised after 60 minutes of warm ischemia, flushed with 20 mL of Ringer's solution containing heparin and subsequently with 60 mL of Histidine-Tryptophane-Cetoglutarate (or HTK) solution and preserved for 24 hours at 4° C. In half of the experiments, meloxicam (4.6 mg/kg body weight) was added to the HTK solution. Reperfusion was carried out in vitro (3 mL/g/min) with oxygenated buffer at 37° C. After 45 minutes of reperfusion, portal venous pressure (PVP) was measured to evaluate vascular conductivity, the enzyme release of alanine aminotransferase (ALT) and […] (GLDH) was measured as indicator of hepatocellular injury, and the bile production and oxygen consumption (VO2) as parameter of functional recovery of the livers. To estimate the impact of oxygen free radicals, the production of malondialdehyde was measured in the hepatic effluent.

[2] = tested on: ischemia/reperfusion injury of the liver; experiment: in vivo warm ischemia (Pringle's maneuver) and reperfusion of the liver in rats; set-up: species or system male Wistar rats; conditions: for Creatinine / GPT / LDH / TNF-alpha: 30 minutes warm ischemia of the liver, 60 minutes of reperfusion, GdCl3 10 mg/kg 24 hours prior
Experimental: In the following experiment, the ability of an in vivo treatment with meloxicam to reduce ischemia/reperfusion injury of the liver was assessed.
For this purpose, male Wistar rats (250 g to 280 g body weight) were anesthetized with intraperitoneal application of pentobarbital (50 mg/kg body weight) and atropine (0.05 mg). All animals were subjected to a 30 minutes warm ischemia of the liver (Pringle's maneuver) and 60 minutes of reperfusion after median lapatomtomy.
One group of animals received no additional treatment (Control group). Another group was given 1 mg/kg body weight meloxicam just prior to the operation (COX-2I group). A third group was given 10 mg/kg body weight gadolinium chloride (GdCl3) 24 hours prior to the operation (GdCl3 group). A fourth group was given 10 mg/kg body weight gadolinium chloride 24 hours prior to operation and 1 mg/kg body weight meloxicam just prior to the operation (GdCl3+COX-2I group). Gadolinium chloride provides for a selective depletion of the liver Kupffer cells.
To assess and compare the level of injury in all groups of animals, a measurement of the enzyme release of glutamate pyruvate transaminase (GPT) and lactate dehydrogenase (LDH) was measured as indicator of hepatocellular injury, and the release of creatinine and TNF-alpha as an indicator of inflammation. To quantify the cellular damage on a structural level, histochemistry was performed with HE staining as well as immunohistochemistry using the TUNEL assay to quantify the apoptotic changes of the livers.

[3] = tested on: liver injuries after Pringle's maneuver; conditions: cited from earlier work; for number of polymorphonuclear neutrophils, lower than in untreated animals: 1 mg/kg
[4] = tested on: warm ischemia/reperfusion injury (hepatic parenchymal injury); conditions: pre- and post-ischemic administration; serum ALT, AST, LDH, HA; cited from earlier work
[5] = tested on: injury associated with ischemia/reperfusion of the brain, liver, kidney, lung, intestine, heart, and pancreas; conditions: administered 30 minutes prior to an hemorrhagic shock; cited from earlier work
[6] = tested on: ischemia/reperfusion injury during organ operation or transplantation; conditions: in vivo; cited from earlier work
[7] = meloxicam 1 mg/kg just prior to operation
[8] = 1 mg/kg via the portal vein, 60 minutes warm ischemia

For `Cc1cnc(NC(=O)C2=C(O)c3ccccc3S(=O)(=O)N2C)s1` [COX-2I, 4-hydroxy-2-methyl-N-(5-methyl-2-thiazolyl)-2H-1,2-benzothiazine-3-carboxamide-1,1-dioxide], the “in vitro preservation of grafts from NHBDs” value [1] was “improves the in vitro preservation of grafts from NHBDs”, the “production of free oxygen radicals during reperfusion (malondialdehyde in hepatic effluent)” value [1] was “decreased the production of free oxygen radicals during reperfusion” and the Creatinine [2, 7] was 0.65 mg/dL. For the same molecule, the GPT [2, 7] was 973 Units/liter, the LDH [2, 7] was 6765 Units/liter and the TNF-alpha [2, 7] was 3.5 pg/mL serum. For the same molecule, the “lower level of GPT compared to the untreated Control group” value [2, 7] was 3 times, the “lower level of LDH compared to the untreated Control group” value [2, 7] was 4 times and the “lower level of TNF-alpha compared to the untreated Control group” value [2, 7] was 5 times. The “lower level of creatinine compared to the untreated Control group” value [2, 7] was 2 times, the “necrotic and apoptotic changes of the liver (HE staining, TUNEL assay)” value ([2]; meloxicam treated groups, histochemistry) was “less necrotic as well as less apoptotic changes” and the “reduction of infiltration of MPO (myloperoxidase) positive cells into the liver after I/R” value ([2]; myeloperoxidase reaction (Hanker-Yates solution)) was ~50%.
For `CC(=O)c1ccc(NS(C)(=O)=O)c(Oc2ccc(F)cc2F)c1` [FK3311, 4′-acetyl-2′-(2,4-difluorophenoxy)methanesulfonanilide], the “level of serum enzyme activity (GOT, GPT, LDH) relative to untreated animals” value [3, 8] is listed as “about half”, the “time after reperfusion by which blood flow recovered to the pre-ischemic level” value [3, 8] is listed as ≤ 30 min and the “number of polymorphonuclear neutrophils, lower than in untreated animals” value ([3]; 1 hour after reperfusion) is listed as “about 40%”. The “number of polymorphonuclear neutrophils, lower than in untreated animals” value ([3]; 6 hours after reperfusion) was “about 25%” and the “protection against warm ischemia/reperfusion injury” value [4] was “satisfactory protection”.
Work on `[Cl][Gd]([Cl])[Cl]` [GdCl3, gadolinium chloride] yielded a Creatinine [2, 7] of 0.94 mg/dL, a GPT [2, 7] of 1611 Units/liter and an LDH [2, 7] of 12100 Units/liter. For the same molecule, the TNF-alpha [2, 7] was 8.05 pg/mL serum.
In the case of `CC(=N)NCCCC[C@H](N)C(=O)O.Cl.Cl` [LNIL, L-N^6-(L-iminoethyl)lysine dihydrochloride], the “injury associated with ischemia/reperfusion of organs” value [5] is listed as “may also contribute to a protective effect”.
In the case of `CC(=O)Oc1ccccc1C(=O)O` [aspirin], the “reduction of ischemia/reperfusion injury during organ operation or transplantation” value [6] is given as “did not significantly reduce”.
For `CCCC[C@@H](C=O)NC(=O)[C@H](CC(C)C)NC(=O)[C@H](CC(C)C)NC(C)=O` [calpain inhibitor I] (Ac-Leu-Leu-[Nle]-aldehyde), the “injury associated with ischemia/reperfusion of organs” value [5] is given as “reduces the injury”.
In the case of `COc1ccc2c(c1)c(CC(=O)O)c(C)n2C(=O)c1ccc(Cl)cc1` [indomethacin], the “reduction of ischemia/reperfusion injury during organ operation or transplantation” value [6] is given as “did not significantly reduce”.
